Measured values from ChEMBL document CHEMBL6092135, “Current development and structure-activity relationship study of berberine derivatives” (Bioorg Med Chem, 2024).

Tests used:
Escherichia coli = experiment: Antibacterial activity against Escherichia coli ATCC 25922 assessed as bacterial growth inhibition measured after 48 hrs by resazurin assay; type: functional
HeLa [1] = experiment: Anticancer activity against human HeLa cells; type: functional, cell-based
A549 = experiment: Anticancer activity against human A549 cells; type: functional, cell-based
HCT-116 = experiment: Cytotoxicity against human HCT-116 cells assessed as reduction in cell viability incubated for 24 hrs by MTT assay; type: functional, cell-based; conditions: HCT-116, 24 h
Enterovirus A71 = experiment: Antiviral activity against human EV71 infected in human RD cells assessed as inhibition of cytopathic effect by microscopy based analysis; type: functional, organism-based; conditions: Enterovirus A
Listeria monocytogenes = experiment: Antibacterial activity against Listeria monocytogenes ATCC 19111 assessed as reduction in bacterial growth incubated for 20 to 24 hrs by microbroth serial dilution assay; type: functional; conditions: time 20-24 hrs
Salmonella typhimurium = experiment: Antimicrobial activity against Salmonella enterica subsp. enterica serovar Typhimurium LT2 assessed as inhibition of bacterial growth measured for 24 hrs by broth micro-dilution method; type: functional
[2] = Antioxidant activity assessed as DPPH radical scavenging activity measured for 30 mins by spectrophotometric analysis; type: functional
HepG2 = experiment: Cytotoxicity against human HepG2 cells assessed as reduction in cell viability by MTT assay; type: functional, cell-based
HT-29 = experiment: Antiproliferative activity against human HT-29 cells assessed as reduction in cell viability incubated for 24 hrs by MTT assay; type: functional, cell-based; conditions: HT-29, 24 h
BFTC-905 = experiment: Antiproliferative activity against human BFTC-905 cells assessed as reduction in cell viability; type: functional, cell-based
C6 = experiment: Antiproliferative activity against rat C6 cells assessed as inhibition of cell growth incubated for 72 hrs by Sulforhodamine B assay; type: functional, cell-based; conditions: C6, 72 h
[3] = test system: Mycobacterium tuberculosis; experiment: Antimycobacterial activity against Mycobacterium tuberculosis H37Rv assessed as reduction in bacterial growth incubated for 7 days by resazurin based assay; type: functional; conditions: 168 h, time 7 day
CCRF-CEM = experiment: Antiproliferative activity against human CEM cells assessed as reduction in cell viability measured after 3 to 4 days by MTT assay; type: functional, cell-based
Candida albicans = experiment: Antifungal activity against Candida albicans ATCC 10231 assessed as reduction in fungal growth by NCCLS method; type: functional
HeLa [4] = experiment: Cytotoxicity against human HeLa cells assessed as reduction in cell viability measured after 48 hrs by SRB assay; type: functional, cell-based
Ca-Ski = experiment: Cytotoxicity against human Ca-Ski cells assessed as reduction in cell viability measured after 48 hrs by SRB assay; type: functional, cell-based
Plasmodium falciparum = experiment: Antiplasmodial activity against Plasmodium falciparum 3D7 assessed as inhibition of parasite growth measured for 42 hrs by SYBR Green staining based fluorescence analysis; type: functional, organism-based; conditions: 3D7, 42 h
Coxsackievirus B3 = experiment: Antiviral activity against Coxsackievirus B3 infected in human HEp-2 cells assessed as inhibition of virus-induced cytopathic effect measured after 48 hrs by MTT assay; type: functional, organism-based; conditions: Enterovirus B, HEp-2, 48 h
Staphylococcus aureus = experiment: Antibacterial activity against Staphylococcus aureus ATCC 25923 assessed as reduction in microbial growth measured after 24 hrs by spectrophotometric method; type: functional

For `COc1ccc2c(c1NS(=O)(=O)c1ccc(Cl)cc1)C[N+]1(S(=O)(=O)c3ccc(Cl)cc3)CCc3cc4c(cc3C1C2)OCO4` (stereo not drawn), which MIC (Escherichia coli) is on record?
Its MIC is 0.5 µg/mL.

Which results are given for `COc1ccc2cc3[n+](cc2c1OCCn1cccn1)CCc1cc2c(cc1-3)OCO2`?
IC50 (HeLa [1]): 8.99 µM; IC50 (A549): 8.99 µM

With `COc1ccc2c(c[n+]3c4c2ccc2c5c(cc(c24)CC3)OCO5)c1OC(=O)c1ccccc1` as the molecule, how does the IC50 (HCT-116) read?
The IC50 was 0.47 µM.

Which IC50 (Enterovirus A71) does the source give for `COc1ccc2cc3[n+](cc2c1OCC(=O)OCc1ccccc1)CCc1cc2c(cc1-3)OCO2` here?
The IC50 was 7.12 µM.

With `COc1cc(CN2CCN(c3ccccc3Cl)CC2)c2cc3[n+](cc2c1O)CCc1cc2c(cc1-3)OCO2.[Cl-]` as the molecule, how does the MIC (Listeria monocytogenes) read?
Its MIC is 200 µg/mL.

For `COc1cc(CN2CCN(C(c3ccccc3)c3ccccc3)CC2)c2cc3[n+](cc2c1O)CCc1cc2c(cc1-3)OCO2.[Cl-]`, which MIC (Listeria monocytogenes) is on record?
Its MIC is 200 µg/mL.

Which MIC (Salmonella typhimurium) does the source give for `COc1cc(Cn2ccnc2)c2cc3[n+](cc2c1O)CCc1cc2c(cc1-3)OCO2.[Cl-]` here?
The MIC was 1 µg/mL.

Which IC50 [2] does the source give for `O=C1O[C@H]([C@@H](O)CO)C(O)=C1O` [ASCORBIC ACID] here?
The IC50 was 61 µM.

With `CCCCCCCCCCCCc1c2[n+](cc3c(OC)c(OC)ccc13)CCc1cc3c(cc1-2)OCO3` as the molecule, how does the IC50 (HepG2) read?
The IC50 was 0.77 µM.

What about the IC50 (HT-29) of the same molecule?
The IC50 was 0.77 µM.

What about the IC50 (BFTC-905) of the same molecule?
The IC50 was 0.77 µM.

And the IC50 (C6)?
The IC50 was 0.77 µM.

With `COc1cc2c(cc1OC)C(c1ccccc1)N1CCc3cc4c(cc3C1=C2)OCO4.Cl` (stereo not drawn) as the molecule, how does the MIC [3] read?
Its MIC is 1 µg/mL.

For `COc1ccc2c(CCCc3ccccc3)c3[n+](cc2c1OC)CCc1cc2c(cc1-3)OCO2`, which IC50 (CCRF-CEM) is on record?
Its IC50 is 0.21 µM.

With `COc1ccc2c(Cc3ccc(C(C)(C)C)cc3)c3[n+](cc2c1OC)CCc1cc2c(cc1-3)OCO2` as the molecule, how does the MIC (Candida albicans) read?
Its MIC is 1.56 µg/mL.

For `COc1cc(CN2CCN(c3ccc(Cl)cc3Cl)CC2)c2cc3[n+](cc2c1O)CCc1cc2c(cc1-3)OCO2`, which IC50 [2] is on record?
Its IC50 is 19.8 µM.

And the IC50 (HeLa [4])?
The IC50 was 7.33 µM.

What about the IC50 (Ca-Ski) of the same molecule?
Its IC50 is 5.75 µM.

What does the source list for `COc1cc(CN2CCN(c3ccc(F)cc3F)CC2)c2cc3[n+](cc2c1O)CCc1cc2c(cc1-3)OCO2`?
IC50 [2]: 19.8 µM; IC50 (HeLa [4]): 7.33 µM; IC50 (Ca-Ski): 5.75 µM

With `CCOC(=O)COc1c(OC)ccc2cc3[n+](cc12)CCc1cc2c(cc1-3)OCO2` as the molecule, how does the IC50 (Enterovirus A71) read?
Its IC50 is 7.12 µM.

For `COc1ccc2cc3[n+](cc2c1OCc1cn(-c2ccc(S(=O)(=O)N4CCOCC4)cc2)nn1)CCc1cc2c(cc1-3)OCO2.[Cl-]`, which IC50 (Plasmodium falciparum) is on record?
The IC50 was 0.2 µg/mL.

For `CCCCCOC(=O)COc1c(OC)ccc2cc3[n+](cc12)CCc1cc2c(cc1-3)OCO2`, which IC50 (Enterovirus A71) is on record?
Its IC50 is 7.12 µM.

Which results are given for `COc1cc(CN2CCN(c3cccc(F)c3F)CC2)c2cc3[n+](cc2c1O)CCc1cc2c(cc1-3)OCO2`?
IC50 [2]: 19.8 µM; IC50 (HeLa [4]): 7.33 µM; IC50 (Ca-Ski): 5.75 µM

For `COc1ccc2cc3[n+](cc2c1)CCc1cc(OCCOCCN)c(OC)cc1-3`, which IC50 (Coxsackievirus B3) is on record?
Its IC50 is 3.08 µM.

Which MIC (Staphylococcus aureus) does the source give for `CCn1cc(C(=O)O)c(=O)c2cc(F)c(N3CCNCC3)cc21` [NORFLOXACIN] here?
Its MIC is 0.025 µg/mL.

Which results are given for `COc1cc(CN2CCN(c3cccc(Cl)c3Cl)CC2)c2cc3[n+](cc2c1O)CCc1cc2c(cc1-3)OCO2`?
IC50 [2]: 19.8 µM; IC50 (HeLa [4]): 7.33 µM; IC50 (Ca-Ski): 5.75 µM
